Our source for the IC50, Ki and Emax values is patent publication US8937065B2, “Compositions and methods for modulating a kinase” (Clevexel Pharma, priority 2011, dated 2015).

In test [1] the test system is RS4; 11 cells. The experiment in a line: Proliferation of RS4; 11 cells (Cell Titer-Glo). Particulars: Homo sapiens, B cells, outcome-based, read-out: IC50 Proliferation RS4, 11 cells (ALL). As to the method: Growth inhibitory activity against the human tumor cell lines, RS4; 11 and Daudi was determined using Promega's Cell Titer-Glo® assay. The human tumor cells were placed in a 96-well microculture plate (Costar white, flat bottom #3917) in a total volume of 90 μL/well. After 24 hours of incubation in a humidified incubator at 37° C. with 5% CO2 and 95% air, […] serially diluted test agents in growth medium were added to each well. After 96 total hours of culture in a CO2 incubator, the plated cells and Cell Titer-Glo® (Promega # G7571) reagents were brought to room temperature to equilibrate for 30 minutes. 100 μL of Cell Titer-Glo® reagent was added to each well. The plate was shaken for 2 minutes and then left to equilibrate for 10 minutes before reading luminescence on the Tecan GENios microplate reader.
Percent inhibition of cell growth was calculated relative to untreated control wells. All tests were performed in duplicate at each concentration level. The IC50 value for the test agents was estimated using Prism 3.03 by curve-fitting the data using the following four parameter-logistic equation: […]
(In general: Cellular ATP, detected with luciferase, serves as a proxy for viable cell number.)

The target in test [2] is T1, JAK3 (Homo sapiens, UniProt P52333).
T1 construct: purchased Invitrogen, Madison, Wis
T1 sequence (P52333 1-1124): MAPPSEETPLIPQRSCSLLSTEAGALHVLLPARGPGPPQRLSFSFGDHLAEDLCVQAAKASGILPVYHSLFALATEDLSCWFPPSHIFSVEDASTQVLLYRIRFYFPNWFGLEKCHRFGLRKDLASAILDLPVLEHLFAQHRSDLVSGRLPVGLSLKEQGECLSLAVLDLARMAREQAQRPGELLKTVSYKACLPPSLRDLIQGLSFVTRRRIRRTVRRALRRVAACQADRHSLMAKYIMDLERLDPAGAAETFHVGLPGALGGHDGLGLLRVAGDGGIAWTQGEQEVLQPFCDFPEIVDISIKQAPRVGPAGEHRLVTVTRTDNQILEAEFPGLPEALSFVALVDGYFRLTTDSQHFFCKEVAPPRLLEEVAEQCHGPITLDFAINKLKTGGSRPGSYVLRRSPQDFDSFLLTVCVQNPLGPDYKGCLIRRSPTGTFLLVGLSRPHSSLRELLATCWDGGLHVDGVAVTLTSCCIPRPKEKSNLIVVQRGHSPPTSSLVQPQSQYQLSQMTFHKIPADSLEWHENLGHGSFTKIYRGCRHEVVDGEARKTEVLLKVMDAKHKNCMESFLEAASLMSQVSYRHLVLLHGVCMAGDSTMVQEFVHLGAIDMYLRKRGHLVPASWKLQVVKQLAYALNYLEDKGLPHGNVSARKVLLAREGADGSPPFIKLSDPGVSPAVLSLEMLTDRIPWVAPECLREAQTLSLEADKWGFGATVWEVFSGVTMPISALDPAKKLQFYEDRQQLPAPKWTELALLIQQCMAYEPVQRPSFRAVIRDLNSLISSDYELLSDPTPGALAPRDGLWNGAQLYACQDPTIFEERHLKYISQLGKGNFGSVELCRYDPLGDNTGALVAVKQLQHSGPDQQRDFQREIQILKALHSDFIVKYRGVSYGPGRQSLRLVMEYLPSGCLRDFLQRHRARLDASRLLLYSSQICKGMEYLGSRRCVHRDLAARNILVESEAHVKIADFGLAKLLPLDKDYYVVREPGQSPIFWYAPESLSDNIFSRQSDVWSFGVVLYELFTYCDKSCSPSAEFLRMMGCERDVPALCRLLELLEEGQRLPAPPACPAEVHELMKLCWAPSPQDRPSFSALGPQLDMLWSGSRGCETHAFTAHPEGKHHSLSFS
Kind of test: JAK3 enzymatic activity assay (Z'-LYTE Biochemical Kinase Assay, 2 hr preincubation at 4° C.). Particulars: cell free, 1% DMSO, read-out: JAK3 activity cell free (2 hr preincubation at (4° C.) Kj). As to the method:
The assays were performed according to manufacturer's protocols, except that prior to the kinase reaction they were pre-incubated for 2 hours at 4° C., in order to be able to assay for time-dependent inhibition.
In addition to the compound, each 10 μL JAK3 kinase reaction contained 0.43-1.89 ng JAK3 and 2 μM peptide substrate in 50 mM HEPES (pH 7.5), 0.01% BRIJ-35, 10 mM MgCl2 and 1 mM EGTA. The kinase reaction was allowed to proceed for 1 hour.

For test [3], the system named is Ramos cells. The experiment in a line: Proliferation of Ramos cells (Cell Titer-Glo). Particulars: Homo sapiens, B cells, outcome-based, read-out: IC50 Proliferation Ramos cells (Burkitt's lymphoma).
Test [4] concerns JAK3 pathway. The experiment in a line: Cell based JAK3 pathway inhibition (STAT6-bla RA1 cells, IL-4 activated). As to the method: 32 μL of the cell suspension (25,000 cells) was added to each well of a 384-well TC-Treated assay plate. Cells in Assay Media were incubated for 16-24 hours in the plate at 37° C./5% CO2 in a humidified incubator. 4 μL of a 10× serial dilution of a compound of the invention was added to appropriate wells of the plate and pre-incubated at 37° C./5% CO2 in a humidified incubator with cells for 30 minutes. 4 μL of 10× control activator IL-4 at the predetermined EC80 concentration was added to wells containing the compound of the invention. The plate was incubated for 5 hours at 37° C./5% CO2 in a humidified incubator. 8 μL of 1 μM Substrate Loading Solution was added to each well and the plate was incubated for 2 hours at room temperature. The plate was read on a fluorescence plate reader.

In the case of `O=C(CN1CCOCC1)Nc1cccc(-c2nc(-c3c[nH]c(C(=O)N4CCCC4)c3)cs2)c1` [7A, 2-morpholino-N-(3-(4-(5-(pyrrolidine-1-carbonyl)-1H-pyrrol-3-yl)thiazol-2-yl)phenyl)acetamide], the IC50 in test [1] is 0.5 µM; in test [3], 0.534 µM; in test [4] (STAT6-bla RA1 cells, IL-4 at EC80) it was 0.11 to 1 µM. Besides, the Ki in test [2] was 1.1 to 10 µM. Moreover, the Emax in test [4] (cell based JAK3 pathway inhibition, maximal inhibition, read-out: Max % Inh) turned out to be 75%.
